Values after ≈ are worked out from the molar mass of the structure shown.
assay: Compound solubility in water; assay type: physicochemical

Compound	solubility [µg/mL]
CCCCCCOC1CCC(NC(=O)c2cnc3cc(C)c(Cl)nn23)CC1 (centres unmarked)	16.8 (≈ 42.8 µM)
Cc1cc2ncc(C(=O)NC3CCCc4ccccc43)n2nc1Cl (centres unmarked)	3.6 (≈ 10.6 µM)
CCC(NC(=O)c1cnc2cc(C)c(Cl)nn12)c1ccccc1 (centres unmarked)	14.6 (≈ 44.5 µM)
O=C(Nc1ccc2c(c1)CCC2)c1cnc2ccc(Cl)nn12	0.7 (≈ 2.24 µM)
O=C(NC1CCCc2ccccc21)c1cnc2ccc(Cl)nn12 (centres unmarked)	17.5 (≈ 53.7 µM)
CCC(NC(=O)c1cnc2ccc(Cl)nn12)c1ccccc1 (centres unmarked)	15.4 (≈ 49.1 µM)
CCCCCO[C@H]1CC[C@H](NC(=O)c2cnc3ccc(Cl)nn23)CC1	17 (≈ 46.6 µM)
Cc1cc(C)c2ncc(C(=O)Nc3ccc(-c4cocn4)cc3)n2n1	1.8 (≈ 5.4 µM)
Cc1cc(C)c2ncc(C(=O)Nc3ccc4c(c3)CCC4)n2n1	0.9 (≈ 2.94 µM)
Cc1cc(C)c2ncc(C(=O)NC3CCCc4ccccc43)n2n1 (centres unmarked)	8.8 (≈ 27.5 µM)
CCC(NC(=O)c1cnc2c(C)cc(C)nn12)c1ccccc1 (centres unmarked)	18.8 (≈ 61 µM)
CCCCCO[C@H]1CC[C@H](NC(=O)c2cnc3c(C)cc(C)nn23)CC1	3.9 (≈ 10.9 µM)
Cc1cc(C)c2ncc(C(=O)NC3(C)CCCc4ccccc43)n2n1 (centres unmarked)	7.2 (≈ 21.5 µM)
C#Cc1ccc(NC(=O)c2cnc3c(C)cc(C)nn23)cc1	0.3 (≈ 1.03 µM)
CCCCCCOC1CCC(NC(=O)c2cnc3c(C)cc(Cl)nn23)CC1 (centres unmarked)	3.1 (≈ 7.89 µM)
Cc1cc(Cl)nn2c(C(=O)Nc3ccc4c(c3)CCC4)cnc12	0.3 (≈ 0.918 µM)
C#Cc1ccc(NC(=O)c2cnc3ccc(Cl)nn23)cc1	15 (≈ 50.6 µM)
C#Cc1ccc(NC(=O)c2ncc3c(C)cc(C)nn23)cc1	1.8 (≈ 6.2 µM)
CCC(NC(=O)c1ncc2c(C)cc(C)nn12)c1ccccc1 (centres unmarked)	29.6 (≈ 96 µM)
Cc1cc(C)c2cnc(C(=O)NC3CCCc4ccccc43)n2n1 (centres unmarked)	38.4 (≈ 120 µM)
Cc1cc(C)c2cnc(C(=O)Nc3ccc4c(c3)CCC4)n2n1	2.1 (≈ 6.85 µM)
Cc1cc(C)c2cnc(C(=O)Nc3ccc(-c4cocn4)cc3)n2n1	0.4 (≈ 1.2 µM)
Cc1cc(C)c2ncc(C(=O)NC(C)(C)C3CC3)n2n1	27.3 (≈ 100 µM)
Cc1cc(-c2ccc(F)cc2)nn2c(C(=O)NC(C)(C)C3CC3)cnc12	0.9 (≈ 2.55 µM)
Cc1cc(-c2ccc(F)cc2)nn2c(C(=O)N[C@@H](C)C3CC3)cnc12	6.5 (≈ 19.2 µM)

Compound	solubility [µg/mL]
Cc1cc(-c2cccc(F)c2)nn2c(C(=O)NC(C)(C)C3CC3)cnc12	1.9 (≈ 5.39 µM)
Cc1cc(-c2cccc(F)c2)nn2c(C(=O)NC(C3CC3)C(F)(F)F)cnc12 (centres unmarked)	0.03 (≈ 0.0765 µM)
COc1cccc(-c2cc(C)c3ncc(C(=O)NC(C4CC4)C(F)(F)F)n3n2)c1 (centres unmarked)	1.4 (≈ 3.46 µM)
COc1cccc(-c2cc(C)c3ncc(C(=O)NC(C4CC4)C4CC4)n3n2)c1	2.7 (≈ 7.17 µM)
Cc1cc(-c2ccns2)nn2c(C(=O)NC(C)(C)C3CC3)cnc12	6.7 (≈ 19.6 µM)
C#CC(C)(C)NC(=O)c1cnc2c(C)cc(-c3ccns3)nn12	17.2 (≈ 52.9 µM)
Cc1cc(-c2ccns2)nn2c(C(=O)NC(C3CC3)C(F)(F)F)cnc12 (centres unmarked)	0.5 (≈ 1.31 µM)
Cc1cc(-c2ccc3ocnc3c2)nn2c(C(=O)NC(C)C3CC3)cnc12 (centres unmarked)	1.4 (≈ 3.87 µM)
Cc1cc(-c2ccc3ocnc3c2)nn2c(C(=O)NC(C3CC3)C(F)(F)F)cnc12 (centres unmarked)	0.2 (≈ 0.481 µM)
Cc1cc(-c2cccc3ocnc23)nn2c(C(=O)NC(C3CC3)C(F)(F)F)cnc12 (centres unmarked)	1.6 (≈ 3.85 µM)
COc1cccc(-c2cc(C)c3ncc(C(=O)NC(C4CC4)C(F)(F)F)n3n2)n1 (centres unmarked)	2.2 (≈ 5.43 µM)
Cc1cc(-c2ccc(F)cc2C#N)nn2c(C(=O)N[C@@H](C)C3CC3)cnc12	2.6 (≈ 7.15 µM)
Cc1cc(C)c2cnc(C(=O)NC(C)(C)C3CC3)n2n1	24 (≈ 88.1 µM)
Cc1cc(-c2ccc(F)cc2)nn2c(C(=O)NC(C)(C)C3CC3)ncc12	1.2 (≈ 3.41 µM)
Cc1cc(-c2ccc(F)cc2)nn2c(C(=O)N[C@@H](C)C3CC3)ncc12	6.9 (≈ 20.4 µM)
Cc1cc(-c2ccc(F)cc2)nn2c(C(=O)NC(C3CC3)C(F)(F)F)ncc12 (centres unmarked)	0.2 (≈ 0.51 µM)
Cc1cc(-c2cccc(F)c2)nn2c(C(=O)NC(C)(C)C3CC3)ncc12	8 (≈ 22.7 µM)
Cc1cc(-c2cccc(F)c2)nn2c(C(=O)NC(C)C(F)(F)F)ncc12 (centres unmarked)	3 (≈ 8.19 µM)
Cc1cc(-c2ccc(F)cc2)nn2c(C(=O)NC(C)C(F)(F)F)ncc12 (centres unmarked)	3.2 (≈ 8.74 µM)
Cc1cc(-c2ccc(F)cc2)nn2c(C(=O)N[C@@H](C)C3CC3)nnc12	1 (≈ 2.95 µM)
Cc1cc(-c2cccnc2)nc2c(C(=O)NC(C3CC3)C(F)(F)F)nsc12 (centres unmarked)	0.3 (≈ 0.765 µM)
Cc1cc(-c2ccccn2)nc2c(C(=O)NC(C3CC3)C(F)(F)F)nsc12 (centres unmarked)	0.7 (≈ 1.78 µM)
Cc1cc(-c2cccc(C(N)=O)c2)nc2c(C(=O)NC(C3CC3)C(F)(F)F)nsc12 (centres unmarked)	1.4 (≈ 3.22 µM)
Cc1cc(-c2cccc3ocnc23)nc2c(C(=O)NC(C3CC3)C(F)(F)F)nsc12 (centres unmarked)	1.1 (≈ 2.54 µM)
Cc1cc(C)c2scc(C(=O)NC(C3CC3)C(F)(F)F)c2n1 (centres unmarked)	0.1 (≈ 0.305 µM)

Compound	solubility [µg/mL]
Cc1cc(-c2cccnc2)nc2c(C(=O)NC(C3CC3)C(F)(F)F)csc12 (centres unmarked)	0.5 (≈ 1.28 µM)
Cc1cc(-c2cccnc2)nc2c(C(=O)NC(C)C3CC3)csc12 (centres unmarked)	1.4 (≈ 4.15 µM)
Cc1cc(-c2cccc(C(N)=O)c2)nc2c(C(=O)NC(C3CC3)C(F)(F)F)csc12 (centres unmarked)	0.4 (≈ 0.923 µM)
Cc1cc(-c2cccc(C#N)c2)nn2c(C(=O)NC(C3CC3)C(F)(F)F)cnc12 (centres unmarked)	0.2 (≈ 0.501 µM)
Cc1cc(N2CCC(F)(F)C2)nn2c(C(=O)NC(C3CC3)C(F)(F)F)cnc12 (centres unmarked)	8.2 (≈ 20.3 µM)
Cc1cc(-c2occc2C#N)nn2c(C(=O)NC(C3CC3)C(F)(F)F)cnc12 (centres unmarked)	0.7 (≈ 1.8 µM)
Cc1cc(-c2ccc3ocnc3c2)nn2c(C(=O)N[C@@H](C3CC3)C(F)(F)F)cnc12	0.5 (≈ 1.2 µM)
Cc1cc(-c2ccc3ocnc3c2)nn2c(C(=O)N[C@H](C)C(F)(F)F)cnc12	1 (≈ 2.57 µM)
Cc1cc(-c2ccc3ocnc3c2)nn2c(C(=O)N[C@@H](C)C(F)(F)F)cnc12	1.2 (≈ 3.08 µM)
Cc1cc(-c2ccc(F)cc2C#N)nn2c(C(=O)N[C@@H](C3CC3)C(F)(F)F)cnc12	1.2 (≈ 2.88 µM)
Cc1cc(-c2ccc(F)cc2C#N)nn2c(C(=O)N[C@H](C)C(F)(F)F)cnc12	1.9 (≈ 4.86 µM)
Cc1cc(-c2ccc(F)cc2C#N)nn2c(C(=O)N[C@@H](C)C(F)(F)F)cnc12	1.9 (≈ 4.86 µM)
Cc1cc(-c2ccc(F)cc2C#N)nn2c(C(=O)N[C@H](C)C3CC3)cnc12	2.3 (≈ 6.33 µM)
Cc1cc(N2CCN(C(C)C)C2=O)nn2c(C(=O)NC(C3CC3)C(F)(F)F)cnc12 (centres unmarked)	18.3 (≈ 43.1 µM)
Cc1cc(-c2cccc(Cl)n2)nn2c(C(=O)NC(C)C(F)(F)F)cnc12 (centres unmarked)	3.5 (≈ 9.12 µM)
Cc1cc(-c2cc(C)c3ncc(C(=O)N[C@H](C4CC4)C(F)(F)F)n3n2)sn1	3.6 (≈ 9.1 µM)
Cc1cc(-c2cncc(Cl)c2)nn2c(C(=O)N[C@H](C3CC3)C(F)(F)F)cnc12	0.3 (≈ 0.732 µM)
Cc1cc(-c2cncc(Cl)c2)nn2c(C(=O)N[C@@H](C3CC3)C(F)(F)F)cnc12	0.3 (≈ 0.732 µM)
Cc1cc(-c2cncc(F)c2)nn2c(C(=O)NC(C3CC3)C(F)(F)F)cnc12 (centres unmarked)	1.3 (≈ 3.3 µM)
Cc1nc2cc(-c3cc(C)c4ncc(C(=O)NC(C)C(F)(F)F)n4n3)ccc2o1 (centres unmarked)	1.5 (≈ 3.72 µM)
Cc1cc(N2CCCC(F)(F)C2)nn2c(C(=O)N[C@@H](C3CC3)C(F)(F)F)cnc12	1.9 (≈ 4.55 µM)
Cc1cc(-c2ccccc2C#N)nn2c(C(=O)NC(C3CC3)C(F)(F)F)cnc12 (centres unmarked)	0.1 (≈ 0.25 µM)
Cc1cc(-c2ccc(F)o2)nn2c(C(=O)NC(C3CC3)C(F)(F)F)cnc12 (centres unmarked)	0.6 (≈ 1.57 µM)
Cc1cc(C#N)c(-c2cc(C)c3ncc(C(=O)N[C@@H](C)C(F)(F)F)n3n2)o1	0.1 (≈ 0.265 µM)

Reference: US9868742B2, “Substituted imidazo[1,2-b]pyridazines, substituted imidazo[1,5-b] pyridazines, related compounds, and their use in the treatment of medical disorders” (Lysosomal Therapeutics Inc., priority 2016, dated 2018)
